Experimental data reported in patent US11447486B2, “2-amino-benzimidazole derivatives and their use as 5-lipoxygenase and/or prostaglandin E synthase inhibitors” (INSTITUT PASTEUR KOREA, priority 2014, dated 2022).
Read-outs that look alike come from different tables or passages of the source.

Experiments:
Rat whole blood (RWB) = test: LTB4 secretion assay in RWB (rat whole blood); format: cell-based; settings: Rattus norvegicus
Experimental: Rat blood was drawn from caudal vena cava from male Sprague Dawley rat (6-9 weeks old) in vacuette coated with sodium heparin (Greiner bio-one, Cat #455051). The blood was pooled and diluted with RPMI (WelGENE, Cat #LM 011-05) to 1:1. The diluted blood was aliquoted into 96 well plate (200 ul per well) and compounds were added in dose response to a desired concentration ranging from 2.5 nM to 50 uM. After 15 min of pre-incubation at 37° C., calcium ionophore (A23187) was added to the final concentration of 10 uM. After 10 min of further incubation at 37° C., the LTB4 production was stopped by diluting the reaction mixture with ice cold PBS (1:4 dilutions). Cells were removed by centrifugation at 1000×g, 4° C. for 10 min, and the supernatant was transferred and then the quantification of LTB4 was done with Leukotriene B4 EIA kit (Cayman, Cat #520111) as instructed.

human 5-LOX = biological target: T1, human 5-LOX (Homo sapiens, UniProt P09917); test: 5-LOX enzyme activity, fluorescence method (5-HPETE, H2DCFDA); format: biochemical; settings: read-out: 5-LO (IC50)
T1 construct: purchased Cayman 60402; host or cells: insect cells (lysate)
T1 sequence (P09917 1-674): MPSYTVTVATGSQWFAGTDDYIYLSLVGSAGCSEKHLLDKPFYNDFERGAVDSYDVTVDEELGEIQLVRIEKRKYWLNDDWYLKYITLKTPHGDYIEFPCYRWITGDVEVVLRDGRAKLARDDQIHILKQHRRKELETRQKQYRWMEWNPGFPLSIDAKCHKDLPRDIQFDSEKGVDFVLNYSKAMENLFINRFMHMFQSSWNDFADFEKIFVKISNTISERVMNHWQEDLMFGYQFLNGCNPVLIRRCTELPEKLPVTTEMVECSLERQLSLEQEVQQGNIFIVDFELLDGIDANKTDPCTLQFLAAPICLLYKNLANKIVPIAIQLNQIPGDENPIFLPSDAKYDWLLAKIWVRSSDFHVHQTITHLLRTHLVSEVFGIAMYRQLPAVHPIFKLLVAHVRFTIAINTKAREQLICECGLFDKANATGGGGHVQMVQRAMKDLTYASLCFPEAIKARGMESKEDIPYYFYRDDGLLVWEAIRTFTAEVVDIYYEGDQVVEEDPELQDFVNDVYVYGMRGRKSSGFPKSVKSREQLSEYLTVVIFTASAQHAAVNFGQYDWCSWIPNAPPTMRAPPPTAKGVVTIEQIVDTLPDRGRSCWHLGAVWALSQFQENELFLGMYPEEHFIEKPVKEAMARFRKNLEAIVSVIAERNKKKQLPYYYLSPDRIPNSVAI
How it was run: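 Compound (0.5 nM to 10 uM) pre-incubated 5 min with enzyme; reaction started with ATP (100 uM final) and arachidonic acid (3 uM final). All steps at room temperature, fluorescence read-out.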

[1] = system: Rat basophilic leukemia (RBL) cells; test: LTB4 secretion assay in RBL (rat basophilic leukemia cells); format: cell-based
How it was run: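 Cells seeded 2×10^4/well the day before, then pre-incubated 15 min at 37 °C in EMEM/0.5% FBS with compound (5 nM to 100 uM). Stimulation with 2.5 uM arachidonic acid plus 5 uM A23187 (final) for 10 min at 37 °C; LTB4 in supernatant quantified by EIA.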

SMILES | EC50 (Rat whole blood (RWB)) [µM] | IC50 (human 5-LOX) [µM] | EC50 ([1]; Rattus norvegicus, RBL) [µM] | EC50 [1] [µM]
Nc1ccc2[nH]c(NCc3ccc4oc(-c5ccc(OC(F)(F)F)cc5)nc4c3)nc2c1 [Compound 1] | > 20 | < 1 |  | 
Nc1ccc2[nH]c(NCc3ccc(N4CCC(Oc5ccc(Cl)cc5)C4)cc3)nc2c1 (stereo not shown) [Compound 3] | > 20 | < 1 |  | 
Nc1ccc2[nH]c(NCc3ccc(N4CCC(COc5ccc(Cl)cc5)CC4)cc3)nc2c1 [Compound 5] | 10 to 20 | < 1 |  | 
Nc1ccc2[nH]c(NCc3ccc(N4CCC(OCc5ccc(Cl)cc5)CC4)cc3)nc2c1 [Compound 6] | > 20 | < 1 |  | 
Nc1ccc2[nH]c(NCc3ccc(N4CCOCC4)cc3)nc2c1 [Compound 7] | > 20 | < 1 |  | 
Cc1cc(Nc2ccc3[nH]c(NCc4ccc(Oc5ccc(Cl)cc5)cc4)nc3c2)n[nH]1 [Compound 8] | > 20 | < 1 |  | 
Nc1ccc2[nH]c(NCc3ccc(Oc4ccc(Cl)cc4)cc3Cl)nc2c1 [Compound 9] | 10 to 20 | < 1 |  | 
Nc1ccc2[nH]c(NCCc3ccc(Oc4ccc(Cl)cc4)cc3)nc2c1 [Compound 11] | < 10 | < 1 |  | 
O=C(NC1CC1)c1c[nH]nc1Nc1ccc2[nH]c(NCc3ccc(Oc4ccc(Cl)cc4)cc3)nc2c1 [Compound 12] | < 10 | < 1 |  | 
CCOC(=O)c1c[nH]nc1Nc1ccc2[nH]c(NCc3ccc(Oc4ccc(Cl)cc4)cc3)nc2c1 [Compound 13] | > 20 | 1 to 10 |  | 
Nc1ccc2nc(N)n(CCc3ccc(Oc4ccc(Cl)cc4)cc3)c2c1 [Compound 15] | > 20 | < 1 |  | 
Nc1nc2ccc(Nc3n[nH]cc3C(=O)NC3CC3)cc2n1CCOc1ccc(OC(F)(F)F)cc1 [Compound 17] | > 20 | 1 to 10 | < 10 | 
CCOC(=O)c1c[nH]nc1Nc1ccc2nc(N)n(CCOc3ccc(OC(F)(F)F)cc3)c2c1 [Compound 22] | > 20 | > 10 |  | 
Fc1ccc(Nc2ccc3[nH]c(NCc4ccc(Oc5ccc(Cl)cc5)cc4)nc3c2)cn1 [Compound 23] | 10 to 20 | 1 to 10 |  | 
Clc1ccc(Oc2ccc(CNc3nc4cc(Nc5cn[nH]c5)ccc4[nH]3)cc2)cc1 [Compound 24] | < 10 | < 1 | < 10 | 
Nc1ccc2[nH]c(NCc3ccc(Cl)cc3F)nc2c1 [Compound 30] | < 10 | < 1 | < 10 | 
Nc1ccc2[nH]c(NCCc3ccc(F)cc3)nc2c1 [Compound 32] | < 10 | < 1 | < 10 | 
CN(C)c1nc2cc(N)ccc2n1CCOc1ccc(Cl)cc1 [Compound 38] | > 20 | < 1 | < 10 | 

SMILES | EC50 (Rat whole blood (RWB)) [µM] | IC50 (human 5-LOX) [µM] | EC50 ([1]; Rattus norvegicus, RBL) [µM] | EC50 [1] [µM]
Cn1c(NCc2ccc(Nc3ncc(Cl)cn3)cc2)nc2ccc(N)cc21 [Compound 458] |  | < 1 | < 10 | 
CNC(=O)c1cnc(Oc2ccc(CNc3nc4ccc(N)cc4n3C)cc2)nc1 [Compound 462] |  | < 1 | > 20 | 
CN(c1ccc(CNc2nc3ccc(N)cc3n2C)cc1)c1ncc(Cl)cn1 [Compound 463] |  | < 1 | < 10 | 
Cc1cc(Nc2ccc3nc(NCc4ccc(Oc5ncc(-c6ccc(Cl)cc6)cn5)cc4)n(C)c3c2)n[nH]1 [Compound 467] |  | < 1 | < 10 | 
Cn1c(NC2(c3ccc(Oc4ncc(Cl)cn4)cc3)CC2)nc2ccc(N)cc21 [Compound 472] |  | 1 to 10 | < 10 | 
Cc1cc(Nc2ccc3nc(NC4(c5ccc(Oc6ncc(Cl)cn6)cc5)CC4)n(C)c3c2)n[nH]1 [Compound 478] |  | < 1 | < 10 | 
Cn1ccc(Nc2ccc3nc(NCc4ccc(Oc5ncc(Cl)cn5)cc4)[nH]c3c2F)n1 [Compound 480] |  | < 1 | < 10 | 
Cc1cc(Nc2ccc3nc(NCc4ccc(Oc5ncc(Cl)cn5)cc4)[nH]c3c2)n[nH]1 [Compound 485] |  | < 1 | 10 to 20 | 
Cc1cc(Nc2ccc3nc(NCc4ccc(Oc5ncc(Cl)cn5)cc4)n(C)c3n2)n[nH]1 [Compound 500] |  | 1 to 10 | 10 to 20 | 
CCn1c(NCc2ccc(Oc3ncc(Cl)cn3)cc2)nc2ccc(Nc3cc(C(F)(F)F)n(C)n3)cc21 [Compound 510] |  | > 10 |  | < 10
CCn1c(NCc2ccc(Oc3ccc(Cl)cn3)cc2)nc2ccc(Nc3cc(C(F)(F)F)n(C)n3)cc21 [Compound 511] |  | > 10 | < 10 | 
CCn1c(NCc2ccc(Oc3cnc(Cl)cn3)cc2)nc2ccc(Nc3n[nH]c(C)c3Cl)cc21 [Compound 515] |  | > 10 | < 10 | 
Cn1nc(CF)cc1Nc1ccc2nc(NCc3ccc(Oc4ncc(Cl)cn4)cc3)n(C)c2c1 [Compound 539] |  | < 1 | < 10 | 
CCn1c(NCc2ccc(Oc3ncc(C(F)(F)F)cn3)cc2)nc2ccc(NC3COC3)cc21 [Compound 548] |  | < 1 | < 10 | 
CCC(Nc1nc2ccc(NC3COC3)cc2n1C)c1ccc(Oc2ccc(C(F)(F)F)cn2)cc1 (stereo not shown) [Compound 549] |  | < 1 | < 10 | 
Cn1c(NCc2ccc(Oc3ncc(C(F)(F)F)cn3)cc2)nc2c(F)cc(NC3COC3)cc21 [Compound 551] |  | < 1 | < 10 | 
Cc1cc(Nc2cc(Cl)c3nc(NCc4ccc(Oc5ncc(Cl)cn5)cc4)n(C)c3c2)n[nH]1 [Compound 556] |  | < 1 | < 10 | 

Now from value to molecule:

EC50 (Rat whole blood (RWB)) [µM] | IC50 (human 5-LOX) [µM] | EC50 ([1]; Rattus norvegicus, RBL) [µM] | EC50 [1] [µM] | SMILES
> 20 | < 1 |  |  | Nc1ccc2[nH]c(NCc3ccc(OCc4ccc(Cl)cc4)cc3)nc2c1 [Compound 4]
10 to 20 | < 1 |  |  | Nc1ccc2[nH]c(NCc3ccc(Oc4ccc(Cl)cc4)cc3F)nc2c1 [Compound 10]
> 20 | < 1 |  |  | Clc1ccc(Oc2ccc(CNc3nc4cc(Nc5cccnc5)ccc4[nH]3)cc2)cc1 [Compound 16]
> 20 | < 1 |  |  | CC(C)(Nc1nc2cc(N)ccc2[nH]1)c1ccc(Oc2ccc(Cl)cc2)cc1 [Compound 20]
 | < 1 | < 10 |  | CCC(Nc1nc2ccc(N)cc2n1C)c1ccc(Oc2ncc(Cl)cn2)cc1 (stereo not shown) [Compound 452]
 | < 1 | < 10 |  | CCC(Nc1nc2ccc(NC3COC3)cc2n1C)c1ccc(Oc2ncc(Cl)cn2)cc1 (stereo not shown) [Compound 453]
 | < 1 | 10 to 20 |  | COc1nc(Oc2ccc(CNc3nc4ccc(N)cc4n3C)cc2)ncc1Cl [Compound 454]
 | < 1 | < 10 |  | Cn1c(NCc2ccc(Oc3cn4ccc(Cl)cc4n3)cc2)nc2ccc(NC3COC3)cc21 [Compound 455]
 | < 1 | > 20 |  | CN(C)C(=O)c1cnc(Oc2ccc(CNc3nc4ccc(N)cc4n3C)cc2)nc1 [Compound 456]
 | < 1 | < 10 |  | Cn1c(NCc2ccc3c(ccn3-c3ccc(Cl)cn3)c2)nc2ccc(NC3COC3)cc21 [Compound 457]
 | < 1 | < 10 |  | Cn1c(NCc2ccc(Oc3ncc(-c4ccc(Cl)cc4)cn3)cc2)nc2ccc(N)cc21 [Compound 460]
 | < 1 | > 20 |  | Cn1c(NCc2ccc(Oc3ncc(Cl)cn3)cc2)nc2ccc(Nc3n[nH]cc3C(=O)NC3CC3)cc21 [Compound 483]
 | < 1 |  | > 20 | Cc1cc(Nc2ccc3nc(NCc4ccc(Oc5ncc(Cl)cn5)cc4)[nH]c3c2)n[nH]1 [Compound 484]
 | 1 to 10 | > 20 |  | Cn1c(NCc2ccc(Oc3ncc(Cl)cn3)cc2)nc2ccc(Nc3n[nH]cc3C(N)=O)cc21 [Compound 488]
 | > 10 | < 10 |  | CCC(Nc1nc2ccc(Nc3cc(C(F)(F)F)n(C)n3)cc2n1C)c1ccc(Oc2ncc(C(F)(F)F)cn2)cc1 (stereo not shown) [Compound 520]
 | 1 to 10 | < 10 |  | CCn1c(NCc2ccc(Oc3ncc(C(F)(F)F)cn3)cc2)nc2ccc(Nc3cc(C(F)(F)F)n(C)n3)cc21 [Compound 521]
 | > 10 | < 10 |  | CCC(Nc1nc2ccc(Nc3cc(C(F)(F)F)n(C)n3)cc2n1C)c1ccc(Oc2cnc(C(F)(F)F)cn2)cc1 (stereo not shown) [Compound 522]
